Data published in US9169285B2, “Methods for purifying steviol glycosides and uses of the same” (The Coca-Cola Company, priority 2011, dated 2015).
“Also recorded” adds a separate entry of the source. Blank lines part the entries; values can stand above or below the compound they belong to.

Experiments:
[1] = Solubility studies of Reb X in carbon-treated water and citrate buffer; assay type: physicochemical
Method: (§1) Citric buffer was prepared by mixing 1.171 g/L citric acid, 0.275 g/L sodium citrate and 0.185 g/L sodium benzoate with carbon-treated water, with a final pH of 3.22. The mixtures were moderately stirred at room temperature. The Reb X sample was then evaluated against the two control Reb A and Reb D samples in water and citric buffer at room temperature (RT) and at 4° C. in an ice bath by one experienced panelist for any tasting quality determinations using the controlled, multi-sip and swallow taste method shown below:
The samples used to evaluate the taste properties in Example 2 were also used for solubility studies.

one experienced taster = test: Isosweetness determination of Reb X in citric buffer against sucrose controls; assay type: in vivo, human
Method: (§2) The isosweetness levels of Reb X in a citric buffer system at room temperature and 4° C. were evaluated. A 600 ppm stock solution of Reb X was prepared by adding a mass of 0.15 g into a 250 mL sample of citric buffer (CB) solution. The mixture was moderately stirred at warmer temperature (up to ca. 52° C.) on a heated stirrer for about 15-20 minutes and then cooled. The citric buffer was prepared by adding 1.6 g citric acid, 0.6 g potassium citrate and 0.253 g sodium benzoate in 1 L of carbon-treated water. The pH of the mixture was 3.1. Seven diluted Reb X solutions at […], 25, 50, 100, 200, 300, 400 and 500 ppm were prepared by adding a 2.08, 4.17, 8.33, 16.67, 25.00, 33.33 and 41.67 mL Reb X stock solution, respectively, into each 50 mL solution of CB. The controls of 0.75%, 2%, 4%, 6%, 8%, 10% and 15% sucrose equivalence (SE) were also prepared by adding sugar (w/v) into the CB. The mixtures were moderately stirred and then ready for the isosweetness determination test. The Reb X samples were then evaluated against the control sugar samples in citric buffer at room temperature (RT) and 4° C. (in an ice bath) by one experienced taster for an isosweetness determination using the controlled, multi-sip and swallow taste method.

[2] = Solubility of the Reb X stock solution in citric buffer; assay type: physicochemical; details: Reb X 0.06% (w/v) in citric buffer, up to 52° C., ca. 15-20 minutes
Method: as §2

[3] = Taste comparison of Reb X and Reb A in beverage formulations; assay type: in vivo
one experienced panelist = test: Taste evaluation of Reb X against Reb A and Reb D, controlled multi-sip and swallow taste method; assay type: in vivo, human; details: for Taste Properties: 500 ppm in citric buffer (pH 3.22)
Method: The taste properties of a sample of Reb X were studied against Rebaudioside A (Reb A) and Rebaudioside D (Reb D) samples. Reb A was obtained from Cargill (lot #1040) and Reb-D was obtained from PureCircle (lot #Nov. 3, 2008).
The samples were prepared at 500 ppm for sweetness evaluation by adding moisture compensated mass into a 100 mL sample of carbon-treated water and citric buffer solutions.
as §1
1. Take first sip (˜1.8 mL) of control and swallow. Wait for 15-25 sec, then take second sip of control and wait for 15-25 sec.
2. Take first sip of the experimental sample, wait for 15-25 sec, then take second sip. Compare to second sip of control.
3. Repeat steps #1 and #2 for the third and fourth sips of the control and experimental samples to confirm the initial finding.

panelists = test: Sensory properties of steviol glycosides in acidified water (pH 3.0) at 500 mg/L, 20 panelists; assay type: in vivo, human; details: for Quality of sweet taste (comment) / Overall evaluation: Satisfactory, number of panelists / Quality of sweet taste: number of panelists giving the comment / Astringent taste: number of panelists detected the attribute / Bitter taste: number of panelists detected the attribute / Licorice taste: number of panelists detected the attribute / Sweet Aftertaste: number of panelists detected the attribute: 500 ppm (sucrose 10,000 ppm); for Astringent taste: number of panelists detected the attribute / Bitter taste: number of panelists detected the attribute / Licorice taste: number of panelists detected the attribute / Sweet Aftertaste: number of panelists detected the attribute: acidified water pH 3.0 by phosphoric acid, 20 panelists
Method: The sensory properties of Reb X were evaluated in acidified water (pH 3.0 by phosphoric acid) at 500 mg/L concentration by 20 panelists.

[4] = system: semi-trained panel members; test: Sensory comparison of Reb X and Reb A, iso-sweet samples of 8% sucrose equivalent sweetness; assay type: in vivo, human
Method: To compare the sensory attributes between Reb X and Reb A, iso-sweet samples having 8% sucrose equivalent sweetness were made with filtered water as shown in Table 8. An 8% sugar solution in water at room temperature was used as a control. An 8% sugar solution in the acidified solution was used as the control. The samples prepared with filtered water were evaluated by 34 semi-trained panel members at room temperature. The samples prepared with acidified water were evaluated by 23 semi-trained panel members at room temperature. Samples were given to the panel members sequentially and coded with triple digit numbers. The order of sample presentation was randomized to avoid order of presentation bias. Water and unsalted crackers were provided in order to cleanse the palate. The panel members were asked to rate different attributes including sweetness onset, total sweetness, rounded sweetness, bitterness, acidity, leafy note, licorice, astringency, mouthfeel, mouth coating, sweet lingering, and bitter lingering. Samples were rated on a scale of zero (0) to ten (10), with zero indicating immediate onset, no intensity, watery/low viscosity, or very sharp peak, and ten indicating very delayed onset, high intensity, thick/high viscosity, or very round peak. One-way single factor ANOVA was used to analyze sensory results, where α=0.05.

panel of trained tasters = test: Reb X sweetness vs. concentration, matched to sucrose reference solutions; assay type: in vivo, human; details: Sweetness Equivalent (SE) 2.5%; Reb X 98% purity; water, room temperature
Method: 2.5%, 5.0%, 7.5%, and 10.0% sucrose solutions were prepared in neutral (7.0 pH) and acidified water (3.2 pH) as reference samples. Solutions containing Reb X (98% purity) were prepared to match the sweetness of each sucrose reference in neutral and acidified water. Samples were tasted and verified by a panel of trained tasters in water at room temperature.

[5] = acidified water pH 3.0, 20 panelists

Estimated time to solubilize ([1]; Reb X 0.01% in carbon-treated water): 15 min
Estimated time to solubilize ([1]; Reb X 0.01% in citrate buffer): 25 min
Estimated time to solubilize ([1]; Reb X 0.02% in carbon-treated water): 25 min
Estimated time to solubilize ([1]; Reb X 0.02% in citrate buffer): 25 min
Estimated time to solubilize ([1]; Reb X 0.04% in carbon-treated water): 33 min
Estimated time to solubilize ([1]; Reb X 0.04% in citrate buffer): 35 min
Estimated time to solubilize ([1]; Reb X 0.05% in carbon-treated water): 39 min
Estimated time to solubilize ([1]; Reb X 0.05% in citrate buffer): 42 min
Estimated time to solubilize ([1]; Reb X 0.075% in carbon-treated water): 55 min
Estimated time to solubilize ([1]; Reb X 0.075% in citrate buffer): 55 min
Estimated time to solubilize ([1]; Reb X 0.10% in carbon-treated water): 106 min
Estimated time to solubilize ([1]; Reb X 0.10% in citrate buffer): 106 min
Estimated time to solubilize ([1]; Reb X 0.15% in carbon-treated water): Insoluble after 20 hours
Estimated time to solubilize ([1]; Reb X 0.15% in citrate buffer): Insoluble after 20 hours
Solubility and appearance [2]: very soluble and clear (colorless)
Compound: C=C1C[C@@]23CCC4[C@](C)(C(=O)OC5OC(CO)C(O)C(OC6OC(CO)C(O)C(O)C6O)C5OC5OC(CO)C(O)C(O)C5O)CCC[C@@]4(C)[C@@H]2CCC1(OC1OC(CO)C(O)C(OC2OC(CO)C(O)C(O)C2O)C1OC1OC(CO)C(O)C(O)C1O)C3 (stereo partly drawn) [Reb X, 13-[(2-O-β-D-glucopyranosyl-3-O-β-D-glucopyranosyl-β-D-glucopyranosyl)oxy]ent kaur-16-en-19-oic acid-[(2-O-β-D-glucopyranosyl-3-O-β-D-glucopyranosyl-β-D-glucopyranosyl)ester]]
Solubility, initial solubility test ([1]; 500 ppm in citrate buffer, compared with Reb D and Reb A): similar, limited but significantly greater solubility than that of Reb D and significantly less solubility than Reb A
Off-flavors (one experienced taster; Reb X 12.5-600 ppm in citric buffer at 4° C.): No off-flavors at any Reb X concentrations in CB at 4 °C were detected, except at least ca. 300 ppm which noticeably had a longer sweetness lingering
Sweetness intensity difference between RT and 4° C. (one experienced taster; Reb X concentration range, direct comparison with control sucrose at similar temperatures): no significant sweetness intensity difference between RT and 4 °C
Sweetness tasting quality (one experienced taster; all Reb X concentrations (12.5-600 ppm), citric buffer): pleasant sweetness tasting quality with a slight delay of sweetness onset and no bitterness
Taste properties compared with Reb A drink ([3]; flavored zero calorie black tea drink, 250 ppm): much cleaner in finish with less sweetness linger and a more rounded overall sweetness profile
Taste properties compared with Reb A drink ([3]; zero calorie enhanced water drink, 200 ppm): cleaner in finish and had reduced sweetness linger and a more rounded overall sweetness taste quality
Reb X level closest in sweetness level to a 11.5 Brix high fructose corn syrup sweetened orange flavored sparkling beverage ([3]; zero calorie orange-flavored sparkling beverage base): 500 ppm
Taste compared with Reb A-containing formulations ([3]; zero calorie orange-flavored sparkling beverage, Reb X 400 to 750 ppm in 50 ppm increments): tasted significantly better than comparable Reb A-containing formulations
Taste Properties (one experienced panelist; room temperature): temporal profile and quality similar to sucrose; also recorded: Clean sweet taste. Broad and full sweetness profile; also recorded: Moderate sweetness linger aftertaste similar to aspartame
Astringency, sweetness depth and bitterness notes (one experienced panelist; 500 ppm, citrate buffer system, compared with Reb A): did not have the astringency or sweetness intense (depth) and bitterness notes compared to that of the Reb A
Taste quality compared with Reb A and Reb D (one experienced panelist; 500 ppm, citric buffer): much better than Reb A or Reb D
Tasting quality, temporal profile and sweetness linger (one experienced panelist; 500 ppm, citric buffer, compared with Reb A): did not display a pure sugar-like tasting quality but rather contained a fatty-like or broader sweet temporal profile and less sweetness linger than that of Reb A
Quality of sweet taste (comment) (panelists; [5]): Clean
Taste profile compared with known steviol glycosides (panelists; 500 ppm, acidified water pH 3.0, 20 panelists): superior taste profile to already known steviol glycosides
Sweetness onset, non-sweet taste and bitterness lingering compared with Reb A ([4]; acidified water (250 ppm citric acid, pH 3.2), 23 panel members, FIG. 12): faster sweetness onset, reduced non-sweet taste (bitterness, sour, astringency) and bitterness lingering
Sweetness compared with Reb A ([4]; acidified water (250 ppm citric acid, pH 3.2), Reb X 0.0423% vs Reb A 0.0510%, 23 panel members, FIG. 12): perception of higher sweetness of Reb X over Reb A is significant
Bitterness, astringency and bitter lingering compared with Reb A ([4]; filtered water, Reb X 0.0423% vs Reb A 0.0510%, 34 panel members, scale 0-10, FIG. 11): reduced perception of bitterness, astringency and bitter lingering compared to Reb A
Reb X Concentration matching the sucrose reference (panel of trained tasters): 48 ppm

Compound: C=C1C[C@@]23CC[C@H]4[C@@](C)(CCC[C@@]4(C)C(=O)O[C@@H]4O[C@H](CO)[C@@H](O)[C@H](O)[C@H]4O)[C@@H]2CC[C@]1(O[C@@H]1O[C@H](CO)[C@@H](O)[C@H](O[C@@H]2O[C@H](CO)[C@@H](O)[C@H](O)[C@H]2O)[C@H]1O[C@@H]1O[C@H](CO)[C@@H](O)[C@H](O)[C@H]1O)C3 [Reb A, Rebaudioside A]
Taste Properties (one experienced panelist; 4° C.): more sweet
Taste Properties (one experienced panelist; room temperature): Delayed sweetness onset, significant lingering sweet
Overall evaluation: Satisfactory, number of panelists (panelists; [5]): (1 of 20)
Quality of sweet taste (comment) (panelists; [5]): Bitter
Quality of sweet taste: number of panelists giving the comment (panelists; [5]): (20 of 20)
Astringent taste: number of panelists detected the attribute (panelists): 20
Bitter taste: number of panelists detected the attribute (panelists): 20
Licorice taste: number of panelists detected the attribute (panelists): 20
Sweet Aftertaste: number of panelists detected the attribute (panelists): 20

Compound: OC[C@H]1O[C@@](CO)(O[C@H]2O[C@H](CO)[C@@H](O)[C@H](O)[C@H]2O)[C@@H](O)[C@@H]1O [Sucrose]
Overall evaluation: Satisfactory, number of panelists (panelists; [5]): (20 of 20)
Quality of sweet taste (comment) (panelists; [5]): Clean
Quality of sweet taste: number of panelists giving the comment (panelists; [5]): 20 of 20

Compound: C=C1C[C@@]23CC[C@H]4[C@@](C)(CCC[C@@]4(C)C(=O)O[C@@H]4O[C@H](CO)[C@@H](O)[C@H](O)[C@H]4O)[C@@H]2CC[C@]1(O[C@@H]1O[C@H](CO)[C@@H](O)[C@H](O)[C@H]1O[C@@H]1O[C@H](CO)[C@@H](O)[C@H](O)[C@H]1O)C3 [Stevioside]
Quality of sweet taste (comment) (panelists; [5]): Bitter
Quality of sweet taste: number of panelists giving the comment (panelists; [5]): (20 of 20)

Compound: C=C1C[C@@]23CC[C@H]4[C@@](C)(CCC[C@@]4(C)C(=O)O[C@@H]4O[C@H](CO)[C@@H](O)[C@H](O)[C@H]4O[C@@H]4O[C@H](CO)[C@@H](O)[C@H](O)[C@H]4O)[C@@H]2CC[C@]1(O[C@@H]1O[C@H](CO)[C@@H](O)[C@H](O[C@@H]2O[C@H](CO)[C@@H](O)[C@H](O)[C@H]2O)[C@H]1O[C@@H]1O[C@H](CO)[C@@H](O)[C@H](O)[C@H]1O)C3 [Reb D, Rebaudioside D]
Taste Properties (one experienced panelist; 4° C.): more sweet
Overall evaluation: Satisfactory, number of panelists (panelists; [5]): (11 of 20)
Quality of sweet taste (comment) (panelists; [5]): Clean
Quality of sweet taste: number of panelists giving the comment (panelists; [5]): 9 of 20
Astringent taste: number of panelists detected the attribute (panelists): 3
Bitter taste: number of panelists detected the attribute (panelists): 3
Licorice taste: number of panelists detected the attribute (panelists): 2
Sweet Aftertaste: number of panelists detected the attribute (panelists): 5
